From a melting point compilation (Tetko et al.; mined from patent text by program, amines drawn as free bases though some values may be those of a salt)

SMILES | melting point [°C]
CC(C)(C)[Si](C)(C)OC1C(n2ccc(=O)[nH]c2=O)OC(CO)C1(O)C#C[Si](C)(C)C (configuration not stated) | 188 to 189
COc1cc2ncc(C#N)c(Nc3ccc4[nH]c(C)nc4c3)c2cc1OC | 207
COC(C)(CC(=O)Nc1cccc(OC(=O)NC(C)C)c1)OC | 160
CC(C)c1ccc(S(=O)(=O)n2c(COC(C)(C)C(=O)O)cc3cc(Cl)ccc32)cc1 | 60
CC(=O)SCC(C)C(=O)N(CC(=O)O)C1CCC1 (configuration not stated) | 162 to 164
CCC(=O)ON=C(c1ccccc1)c1cc(C(C)(C)C)c(O)c(C(C)(C)C)c1 | 132 to 134
Cc1cc(C)c(Nc2nc(C)ccc2S(=O)(=O)c2ccc(F)c(Cl)c2)c(C)c1 | 139 to 141
O=C(NCCCCOc1ccc(-c2ccc(=O)[nH]n2)cc1)c1cccnc1 | 155 to 157
C=CCOC(=O)Nc1cc(C(C)(C)C)[nH]n1 | 131 to 132
CCNC(=O)c1cccc(F)c1Nc1nc(Cl)ncc1Cl | 233 to 234
C=CCOC(=O)CC(=O)NC1C(=O)N2C1SC(C)(C)C2C(=O)OCC=C (configuration not stated) | 59 to 60
CCOC(=O)C(=O)Nc1ccc(C(F)(F)F)cc1C | 120 to 121
c1cc2c(cc1N1CCNCC1)OCCO2 | 138
COc1cccc(CC(NC(=O)CCl)c2ccccc2)c1 (configuration not stated) | 104 to 105
CS(=O)c1ccc(Oc2ccc(Cl)c(Cl)c2)nc1C#N (configuration not stated) | 165 to 167
CCC(CO)(CO)NC(=O)Nc1ccccc1CCc1cc(C(C)(C)C)c(O)c(C(C)(C)C)c1 | 145 to 146
O=[N+]([O-])c1cc(CS(=O)(=O)Cc2ccc(O)c([N+](=O)[O-])c2)ccc1O | 166 to 168
COC(=O)/C(=C\O)c1ccccc1C | 48 to 49
Cc1cc(C)cc(C(=O)P2(=O)Oc3ccccc3-c3ccccc32)c1 (configuration not stated) | 120 to 124
COc1ccc(-c2nc(Sc3ccccc3)n(C)c2-c2ccc(OC)cc2)cc1 | 115 to 117
Cn1c(=O)n(Cc2ccc(F)cc2)c(=O)c2cc(C(=O)c3nc(Br)c4ccccn34)ccc21 | 280
COc1ccccc1NC(=O)Nc1nc(Nc2ccccc2-c2ccccc2)nc(N(CCC(=O)O)Cc2ccccc2C(F)(F)F)n1 | 216 to 219
COc1cc(N(C(=O)COCCOCC(N)=O)c2cc(OC)cc3ccc(C)nc23)c2nc(C)ccc2c1 | 191 to 193
C#Cc1ccc(Oc2cc(C(=O)Cl)cc(C(=O)Cl)c2)cc1 | 68 to 69
COC(=O)C12C3C4(C(=O)OC)C1C1(C(=O)OC)C2C3(C(=O)OC)C41Cl (configuration not stated) | 178 to 180
O=C(CN(Cc1ccc(OCc2ccccc2)cc1)C(=O)[C@H](Cc1c[nH]cn1)NC(=O)OCc1ccccc1)NCCCCc1ccccc1 | 58 to 61
COC(=O)C(Cc1ccc(OCCc2nc(-c3ccccc3)oc2C)cc1)C(=O)O (configuration not stated) | 126 to 127
CCN1C(=O)C(C)(C)C(=O)N(C)c2cc(CN(CCn3cc(C)c4occc4c3=O)Cc3cnc(C)nc3)ccc21 | 166 to 167

SMILES | melting point [°C]
CCc1nc2cccc(C)c2c(=O)n1-c1ccc(F)cc1 | 170
COc1ccccc1NC(=O)Nc1nc(NC(C)C)nc(N(CCC(=O)O)Cc2ccc(Cl)c(Cl)c2)n1 | 95 to 101
CCOP(=O)(OCC)C(Sc1cc(C(C)(C)C)c(O)c(C(C)(C)C)c1)P(=O)(OCC)OCC | 78 to 80
CC(C)(C)C(=O)Oc1n[nH]c(=O)c2nc3cc(Cl)ccc3c(O)c12 | 352 to 357
O=S(=O)(O)c1ccccc1Nc1ccnc2cc(Cl)ccc12 | > 300
N#CC(Cl)Cc1ccc([N+](=O)[O-])cc1 (configuration not stated) | 112
OCc1c(Cl)cc(Cl)cc1Cl | 100 to 101
CC(c1nc2ccccc2c(=O)n1-c1ccc(F)cc1)N(Cc1cccnc1)C(=O)Cc1ccc(C(F)(F)F)cc1 (configuration not stated) | 167
CNC(=O)C(Cc1ccc(OC)cc1)NC(=O)C(C)(CC(C)C)c1cccc(C(F)(F)F)c1S (configuration not stated) | 88 to 102
CCOC(=O)c1ccccc1NC(=O)CBr | 65 to 66
C[C@@H]1NC(=O)C[C@]1(C)O | 169 to 173
CNC(=O)N(O)Cc1cccc(Nc2ccccc2C(=O)OC)c1Cl | 143 to 145
Cc1nn(-c2cc(O)c(Cl)cc2F)c(C)c1[N+](=O)[O-] | 157 to 158
COc1ccc(S(=O)(=O)N=[N+]=[N-])cc1 | 48 to 50
COC(=O)C(=O)Nc1ccccc1C(C)(C)C | 61.7 to 63.6
N#CCCCOc1ccc(-c2nnc(CSCCOc3ccccc3)o2)cc1 | 67 to 68
O=S(=O)(c1ccccc1)c1ccc(Cl)cn1 | 154 to 155
O=C(c1cccnc1)n1nc(-c2ccc(Br)cc2)cc1C(F)(F)F | 150 to 152
C[C@H](NS(=O)(=O)c1ccc(-c2c(C#N)c3cc(C(F)(F)F)cnc3n2-c2ccccc2)nc1)C(F)(F)F | 186 to 188
O=C(O)[C@@H]1[C@H](C(=O)O)N(Cc2ccccc2)C(=O)N1Cc1ccccc1 | 173
COc1cccc(Nc2cc(Nc3ccc(F)c(Cl)c3)ncn2)c1 | 214 to 216
Cc1ccc2cccc(OCc3cc(N(C)C(=O)CN)ccc3Cl)c2n1 | 82 to 87
COC(=O)C(C(=O)OC)C(=O)C(C)Oc1ccc(Oc2ccc(C(F)(F)F)cc2)cc1 (configuration not stated) | 40 to 44
CCOc1cc(C)c(NCCO)cc1[N+](=O)[O-] | 119
COc1ccc(-c2cc(=O)n(Cc3c(Cl)cc(Cl)cc3Cl)nc2-c2ccc(OC)cc2)cc1 | 142 to 143
COc1cccc(C(O)c2cc3ccccc3s2)c1 (configuration not stated) | 63 to 65
CN(C)C=Nc1ccc(-c2ccc(C(F)(F)F)cc2)cn1 | 154

Continued, values first:

melting point [°C] | SMILES
150 to 152 | O=c1cc(OCc2ccccc2)cc(C=Cc2ccc3c(c2)OCO3)o1
139 to 141 | O=C1N(Cc2ccccc2)c2cc(Cl)ccc2N=C2CCCC12Cc1ccccc1 (configuration not stated)
76 to 82 | CCS(=O)(=O)n1cc(C(=O)C2CSC(c3cccnc3)N2)c2ccc(OCc3ccccc3)cc21 (configuration not stated)
236 | CS(=O)(=O)c1ccc(C(=O)N[C@H]2CC[C@H](CCN3CCC(c4cccc5c4CCO5)CC3)CC2)cc1
189 to 191 | O=C1NNC(c2ccc3c(c2)CC2(CCN(C4CCC4)CC2)O3)C2C=C12 (configuration not stated)
205 to 206 | CC(C)c1cc(C(C)C)c2c(c1)C1(O)C(=O)c3ccccc3C1(O)O2 (configuration not stated)
130 | Cc1ccc(S(=O)(=O)N2CCCC2c2ccc(C)cc2C)cc1 (racemic)
170 to 172 | Cc1cc(F)ccc1-c1ccc2c(c1)NC(=O)CC(c1cccc(-n3ccnc3)c1)=N2
255 to 257 | COc1ccn2c(C)c(CCc3ccc4nc(O)oc4c3)nc2c1
92 to 94 | O=C1C(CCO)Oc2ccc(C(F)(F)F)cc2N1Cc1cccc(Cl)c1 (configuration not stated)
139 to 141 | COc1ccc(C=C(C#N)c2ccc(F)cc2)cc1OC1CCCC1
150 to 152 | O=C(OC1CCc2c(c3ccccc3n2Cc2ccc(Cl)cc2)C1)c1ccccc1 (configuration not stated)
112 to 114 | O=C(O)[C@H]1C[C@H](NCc2ccccc2)c2c(Cl)cc(Cl)cc2N1 (relative stereo)
210 | Cc1c(C#N)[nH]n(-c2ccc(Cl)c(Cl)c2)c1=O
145 to 155 | C[C@H](NC(=O)Cc1cc(F)cc(F)c1)C(=O)N[C@@H]1C(=O)Nc2ccccc2S[C@@H]1c1cc(Br)cs1
378 | COc1ccc(-c2sc(Nc3cnccn3)nc2C)cc1S(N)(=O)=O
142 | OC1CCCC2C3CCCCCCC3C12 (configuration not stated)
191 to 194 | O=C(Nc1ccc(CN2C(=O)C3CCCC3N(C(=O)CN3C(=O)c4ccccc4C3=O)c3ccccc32)cc1)c1ccc2ccccc2c1 (configuration not stated)
152 to 155 | COc1ccc(C)cc1NC(=O)Nc1ccc(N2CCN(C(=O)Nc3ccc(CO)cc3Cl)CC2)cc1
157 to 159 | O=c1[nH]c(COCc2ccccc2)nc2nccnc12
166 to 168 | COC(=O)c1cc2c3cccc(Cl)c3n(C)c2s1

melting point [°C] | SMILES
195 to 197 | O=C1N(Cc2ccccn2)c2cccc(-c3ccoc3)c2C12COc1cc3c(cc12)CCO3 (configuration not stated)
85 to 86 | Cc1cc(C#N)ccc1N1CCOCC1
166 | CC(C)(C)OC(=O)NCc1ccc(N2CC(C(=O)O)OC2=O)cc1 (configuration not stated)
75 to 76 | OCCCc1cnoc1-c1ccc(Cl)c(Br)c1
225 to 226 | COC(=O)C1=C(O)c2c(c3cc(OC)ccc3n2C)S(=O)(=O)N1
258 | Nc1c(Cl)cc(C(=O)O)c2c1CCO2
241 to 242 | CS[C@@H]1CC[C@H](C(=O)O)Cc2onc(-c3ccc(Cl)cc3)c21 (relative stereo)
108 | Cc1c(CC(=O)O)oc2ccccc12
152 to 153 | Cc1oc2ccc(-n3nnc4cccnc43)cc2c1C
140 to 146 | CC(=O)NC[C@H]1CN(c2ccc(N3CCNC(=O)CC3)c(F)c2)C(=O)O1
176 to 178 | Cc1ccc(CNc2c3c(nc4ccccc24)CCCC3O)cc1 (configuration not stated)
169 to 180 | CC(C)c1ccc2c(c1)NC(=S)C2=O
179 | COc1ccccc1C(=O)N1CCCC(=O)c2ccc(Cl)cc2CCC1=O
249 to 251 | COc1ccc(-n2c(=O)c(C(=O)C3=C(O)CCCC3=O)nc3c(Cl)cccc32)cc1
118 to 120 | CC1(c2ccc(F)cc2)CN(Cc2ccc(COc3cccc4c3CN(C3CCC(=O)NC3=O)C4=O)cc2)CCO1 (configuration not stated)
77.5 to 78 | CCCn1c(-c2ccc3c(c2)OCO3)nc2ccccc21
202 to 208 | COc1ccc(CC2SC(=O)NC2=O)c2c1N(Cc1ccc(NC(=O)c3ccc4ccccc4c3)cc1)C(=O)CC2 (configuration not stated)
135 to 137 | Cc1cc(C(=O)N(O)C2CCCCC2)c(C)o1
169 to 170 | CCC1(CCCCN2CCN(c3cccc4c3OCCO4)CC2)C(=O)Nc2ccccc21 (configuration not stated)
118 to 120 | C/C=C(\C)CNc1cccc(-c2ccnc3c(C(=O)c4cccs4)cnn23)c1
109 to 110 | CC1CC(=O)Oc2cc(O)ccc21 (configuration not stated)
